# From patent US6878722B2, “Substituted cycloalkyl P1′ hepatitis C virus inhibitors” (Bristol-Myers Squibb Company, priority 2002, dated 2005)
# pEC50, pIC50: −log10 of the molar value. Like-named read-outs stand apart in the source and are kept apart here.
# Tests used:
# [1] = biological target: T1, HCV NS3/4A protease complex (BMS strain, genotype 1a) (Hepatitis C virus genotype 1a, UniProt P27958, C1454S); assay: Recombinant HCV NS3/4A protease complex FRET peptide assay, BMS strain; format: biochemical; conditions: NS3/4A BMS Strain
# T1 construct: DNA encoding the recombinant HCV NS3/4A protease complex (amino acids 1027 to 1711) for these strains; inferred from the pET21b vector and Ni-NTA purification; made in house; host or cells: Escherichia coli BL21 (DE3), pET21b
# From the text: The purpose of this in vitro assay was to measure the inhibition of HCV NS3 protease complexes, derived from the BMS, H77C or J416S strains, as described below, by compounds of the present invention.
# Serum from an HCV-infected patient was obtained from Dr. T. Wright, San Francisco Hospital. An engineered full-length cDNA (compliment deoxyribonucleic acid) template of the HCV genome (BMS strain) was constructed from DNA fragments obtained by reverse transcription-PCR (RT-PCR) of serum RNA (ribonucleic acid) and using primers selected on the basis of homology between other genotype 1a strains. […] The infectious clones, H77C (1a genotype) and J4L6S (1b genotype) were obtained from R. Purcell (NIH) and the sequences are published in Genbank (AAB67036, see Yanagi,M., Purcell,R. H., Emerson,S. U. and Bukh,J. Proc. Natl. Acad. Sci. U.S.A. 94(16),8738-8743 (1997); AF054247, see Yanagi,M., St Claire,M., Shapiro,M., Emerson,S. U., Purcell,R. H. and Bukh,J, Virology 244 (1), 161-172. (1998)).
# The BMS, H77C and J4L6S strains were used for production of recombinant NS3/4A protease complexes. DNA encoding the recombinant HCV NS3/4A protease complex (amino acids 1027 to 1711) for these strains were manipulated as described by P. Gallinari et al. (see Gallinari P, Paolini C, Brennan D, Nardi C, Steinkuhler C, De Francesco R. Biochemistry. 38(17):5620-32, (1999)). Briefly, a three-lysine solubilizing tail was added at the 3′-end of the NS4A coding region. The cysteine in the P1 position of the NS4A-NS4B cleavage site (amino acid 1711) was changed to a glycine to avoid the proteolytic cleavage of the lysine tag. Furthermore, a cysteine to serine mutation was introduced by PCR at amino acid position 1454 to prevent the autolytic cleavage in the NS3 helicase domain. The variant DNA fragment was cloned in the pET21b bacterial expression vector (Novagen) and the NS3/4A complex was expressed in Escherichia. coli strain BL21 (DE3) (Invitrogen) following the protocol described by P. Gallinari et al. (see Gallinari P, Brennan D, Nardi C, Brunetti M, Tomei L, Steinkuhler C, De Francesco R., J. Virol. 72(8):6758-69 (1998)) with modifications. Briefly, NS3/4A expression was induced with 0.5 mM Isopropyl β-D-1-thiogalactopyranoside (IPTG) for 22 hr at 20° C. […] The cells were resuspended in lysis buffer (10 mL/g) consisting of 25 mM N-(2-Hydroxyethyl)Piperazine-N′-(2-Ethane Sulfonic acid) (HEPES), pH 7.5, 20% glycerol, 500 mM Sodium Chloride (NaCl), 0.5% Triton-X100, 1 ug/ml lysozyme, 5 mM Magnesium Chloride (MgCl2), 1 ug/ml DnaseI, 5 mM β-Mercaptoethanol (βME), Protease inhibitor—Ethylenediamine Tetraacetic acid (EDTA) free (Roche), homogenized and incubated for 20 mins at 4° C. The homogenate was sonicated and clarified by ultra-centrifugation at 235000 g for 1 hr at 4° C. Imidazole was added to the supernatant to a final concentration of 15 mM and the pH adjusted to 8.0. The crude protein extract was loaded on a Nickel-Nitrilotriacetic acid (Ni-NTA) column pre-equilibrated with buffer B (25 mM HEPES, pH 8.0, 20% glycerol, 500 mM NaCl, 0.5% Triton-X100, 15 mM imidazole, 5 mM βME). The sample was loaded at a flow rate of 1 mL/min. The column was washed with 15 column volumes of buffer C (same as buffer B except with 0.2% Triton-X100). The protein was eluted with 5 column volumes of buffer D (same as buffer C except with 200 mM Imidazole).
# NS3/4A protease complex-containing fractions were pooled and loaded on a desalting column Superdex-S200 pre-equilibrated with buffer D (25 mM HEPES, pH7.5, 20% glycerol, 300 mM NaCl, 0.2% Triton-X100, 10 mM βME).
# [2] = test system: HCV replicon in Huh7 cells; assay: HCV replicon cell-based assay (FRET); conditions: HCV replicon, read-out: EC50 range
# From the text: An HCV replicon whole cell system was established as described by Lohmann V, Korner F, Koch J, Herian U, Theilmann L, Bartenschlager R., Science 285(5424):110-3 (1999). This system enabled us to evaluate the effects of our HCV Protease compounds on HCV RNA replication. Briefly, using the HCV strain 1B sequence described in the Lohmann paper (Assession number: AJ238799), an HCV cDNA was generated encoding the 5′ internal ribosome entry site (IRES), the neomycin resistance gene, the EMCV (encephalomyocarditis viurs)-IRES and the HCV nonstructural proteins, NS3-NS5B, and 3′ non-translated region (NTR). In vitro transcripts of the cDNA were transfected into the human hepatoma cell line, Huh7. […] Resulting cell lines were characterized for positive and negative strand RNA production and protein production over time.
# Huh7 cells, constitutively expressing the HCV replicon, were grown in Dulbecco's Modified Eagle Media (DMEM) containing 10% Fetal calf serum (FCS) and 1 mg/ml G418 (Gibco-BRL). Cells were seeded the night before (1.5×10^4 cells/well) in 96-well tissue-culture sterile plates. Compound and no compound controls were prepared in DMEM containing 4% FCS, 1:100 Penicillin/Streptomysin, 1:100 L-glutamine and 5% DMSO in the dilution plate (0.5% DMSO final concentration in the assay). Compound/DMSO mixes were added to the cells and incubated for 4 days at 37° C. After 4 days, plates were rinsed thoroughly with Phosphate-Buffered Saline (PBS) (3 times 150 μl). The cells were lysed with 25 μl of a lysis assay reagent containing the FRET peptide (RET S1, as described for the in vitro enzyme assay). The lysis assay reagent was made from 5× cell Luciferase cell culture lysis reagent(Promega #E153A) diluted to 1× with distilled water, NaCl added to 150 mM final, the FRET peptide diluted to 10 μM final from a 2 mM stock in 100% DMSO. The plate was then placed into the Cytofluor 4000 instrument which had been set to 340 nm excitation/490 emission, automatic mode for 21 cycles and the plate read in a kinetic mode. EC50 determinations were carried out as described for the IC50 determinations.
# T1 sequence (P27958 1658-1714, looked up, stated change not applied): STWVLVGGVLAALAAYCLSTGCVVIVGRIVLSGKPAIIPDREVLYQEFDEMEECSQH
# T1 sequence (P27958 1027-1657, looked up, stated change not applied): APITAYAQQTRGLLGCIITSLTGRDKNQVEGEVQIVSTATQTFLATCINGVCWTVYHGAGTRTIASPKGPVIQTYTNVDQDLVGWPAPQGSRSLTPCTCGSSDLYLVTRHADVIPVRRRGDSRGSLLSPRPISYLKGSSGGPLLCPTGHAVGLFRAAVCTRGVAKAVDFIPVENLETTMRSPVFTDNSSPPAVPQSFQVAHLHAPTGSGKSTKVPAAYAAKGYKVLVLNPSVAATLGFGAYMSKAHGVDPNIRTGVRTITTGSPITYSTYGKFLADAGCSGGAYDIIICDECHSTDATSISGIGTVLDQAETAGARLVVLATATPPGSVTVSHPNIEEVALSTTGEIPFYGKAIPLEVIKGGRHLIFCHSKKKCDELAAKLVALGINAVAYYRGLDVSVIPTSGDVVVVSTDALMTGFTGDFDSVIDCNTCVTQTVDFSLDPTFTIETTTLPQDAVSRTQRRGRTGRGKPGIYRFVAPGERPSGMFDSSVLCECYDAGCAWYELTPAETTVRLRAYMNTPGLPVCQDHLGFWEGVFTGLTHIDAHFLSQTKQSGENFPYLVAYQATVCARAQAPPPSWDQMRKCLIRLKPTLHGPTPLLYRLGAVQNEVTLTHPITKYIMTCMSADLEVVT
SMILES,pIC50 ([1]; read-out: IC50 range),pEC50 [2],pIC50 ([1]; IC50 range),"pEC50 ([2]; Hepatitis C virus, Huh-7)"
"C=CCCCCCCCC1(S(=O)(=O)NC(=O)C2(NC(=O)C3CC(Oc4cc(-c5ccccc5)nc5cc(OC)ccc45)CN3C(=O)C(NC(=O)OC(C)(C)C)C(C)(C)C)CC2C=C)CC1 (stereo not drawn) [Compound 34, (1-{4-(7-Methoxy-2-phenyl-quinolin-4-yloxy)-2-[1-(1-non-8-enyl-cyclopropanesulfonylaminocarbonyl)-2-vinyl-cyclopropylcarbamoyl]-1-pyrrolidine-1-carbonyl}-2,2-dimethyl-propyl)-carbamic acid tert-butyl ester]",> 7.30,> 7.30,,
"C=C[C@@H]1C[C@]1(NC(=O)[C@@H]1C[C@@H](Oc2cc(-c3ccccc3)nc3cc(OC)ccc23)CN1C(=O)[C@@H](NC(=O)OC(C)(C)C)C(C)(C)C)C(=O)NS(=O)(=O)C1(Cc2ccc(OC)cc2)CC1 [Compound 42, {1-[2-{1-[1-(4-Methoxy-benzyl)-cyclopropanesulfonylaminocarbonyl]-2-vinyl-cyclopropylcarbamoyl}-4-(7-methoxy-2-phenyl-quinolin-4-yloxy)-pyrrolidine-1-carbonyl]-2,2-dimethyl-propyl}-carbamic acid tert-butyl ester]",,,6.30 to 7.30,6.30 to 7.30
"C=C[C@@H]1C[C@]1(NC(=O)[C@@H]1C[C@@H](Oc2cc(-c3ccccc3)nc3cc(OC)ccc23)CN1C(=O)[C@@H](NC(=O)OC(C)(C)C)C(C)(C)C)C(=O)NS(=O)(=O)C1(Cc2ccccc2F)CC1 [Compound 41, {1-[2-{1-[1-(2-Fluoro-benzyl)-cyclopropanesulfonylaminocarbonyl]-2-vinyl-cyclopropylcarbamoyl}-4-(7-methoxy-2-phenyl-quinolin-4-yloxy)-pyrrolidine-1-carbonyl]-2,2-dimethyl-propyl}-carbamic acid tert-butyl ester]",,,> 7.30,6.30 to 7.30
"C=CC1C[C@]1(NC(=O)[C@@H]1C[C@@H](Oc2cc(-c3ccccc3)nc3cc(OC)ccc23)CN1C(=O)[C@@H](NC(=O)OC(C)(C)C)C(C)(C)C)C(=O)NS(=O)(=O)C1(C(=O)c2ccccc2)CC1 (stereo in doubt) [Compound 4, {1-[2-[1-(1-Benzoylcyclopropanesulfonyl-aminocarbonyl)-2-vinyl-cyclopropylcarbamoyl]-4-(7-methoxy-2-phenylquinolin-4-yloxy)-pyrrolidine-1-carbonyl]-2,2-dimethylpropyl}-carbamic acid tert-butyl ester]",,,6.30 to 7.30,6.30 to 7.30
C=CCCCCCCCCC1(S(=O)(=O)NC(=O)C2(NC(=O)C3CC(Oc4cc(-c5ccccc5)nc5cc(OC)ccc45)CN3C(=O)C(NC(=O)OC(C)(C)C)C(C)(C)C)CC2C=C)CC1 (stereo not drawn) [Compound 33],> 7.30,6.30 to 7.30,,
"C=C[C@@H]1C[C@]1(NC(=O)[C@@H]1C[C@@H](Oc2cc(-c3ccccc3)nc3cc(OC)ccc23)CN1C(=O)[C@@H](NC(=O)OC(C)(C)C)C(C)(C)C)C(=O)NS(=O)(=O)C1(CCC)CC1 [Compound 29, (1-{4-(7-Methoxy-2-phenyl-quinolin-4-yloxy)-2-[1-(1-propyl-cyclopropanesulfonylaminocarbonyl)-2-vinyl-cyclopropylcarbamoyl]-pyrrolidine-1-carbonyl}-2,2-dimethyl-propyl)-carbamic acid tert-butyl ester]",,,> 7.30,> 7.30
"CCCC1(S(=O)(=O)NC(=O)C2(NC(=O)[C@@H]3C[C@@H](Oc4cc(-c5ccccc5)nc5cc(OC)ccc45)CN3C(=O)[C@@H](NC(=O)OC(C)(C)C)C(C)(C)C)CC23CC3)CC1 (mixture of isomers) [Compound 200, (1-{4-(7-Methoxy-2-phenyl-quinolin-4-yloxy)-2-[1-(1-propyl-cyclopropane-sulfonylaminocarbonyl)-spiro[2.2]pent-1-ylcarbamoyl]-pyrrolidine-1-carbonyl}-2,2-dimethyl-propyl)-carbamic acid tert-butyl ester]",,,6.30 to 7.30,5.30 to 6.30
C=C[C@@H]1C[C@]1(NC(=O)[C@@H]1C[C@@H](Oc2cc(-c3ccccc3)nc3cc(OC)ccc23)CN1C(=O)[C@@H](NC(=O)OC(C)(C)C)C(C)(C)C)C(=O)NS(=O)(=O)C1(Cc2ncoc2-c2ccccc2)CC1 [Compound 46],,,> 7.30,> 7.30
C=C[C@@H]1C[C@]1(NC(=O)[C@@H]1C[C@@H](Oc2cc(-c3ccccc3)nc3cc(OC)ccc23)CN1C(=O)[C@@H](NC(=O)COC)C(C)(C)C)C(=O)NS(=O)(=O)C1(Cc2ccccc2)CC1 [Compound 111],,,6.30 to 7.30,6.30 to 7.30
C=C[C@@H]1C[C@]1(NC(=O)[C@@H]1C[C@@H](Oc2cc(-c3ccccc3)nc3cc(OC)ccc23)CN1C(=O)[C@@H](NC(=O)O[C@@H]1C[C@H](C)CC[C@H]1C(C)C)C(C)(C)C)C(=O)NS(=O)(=O)C1(Cc2ccccc2)CC1 [Compound 109],,,5.30 to 6.30,
C=C[C@@H]1C[C@]1(NC(=O)[C@@H]1C[C@@H](Oc2cc(-c3ccccc3)nc3cc(OC)ccc23)CN1C(=O)[C@@H](NC(=O)[C@@H]1COc2ccccc2O1)C(C)(C)C)C(=O)NS(=O)(=O)C1(Cc2ccccc2)CC1 [Compound 113],,,5.30 to 6.30,
COc1ccc2c(O[C@@H]3C[C@@H](C(=O)NC4(C(=O)NS(=O)(=O)C5(C(=O)c6ccccc6)CC5)CC4)N(C(=O)[C@@H](NC(=O)OC(C)(C)C)C(C)(C)C)C3)cc(-c3ccccc3)nc2c1 [Compound 73],,,5.30 to 6.30,
